In ChEMBL document CHEMBL1138371, “Discovery of low nanomolar non-hydroxamate inhibitors of tumor necrosis factor-alpha converting enzyme (TACE)” (Bioorg Med Chem Lett, 2007) one finds IC50, Ki and inhibition data, which are given here for six compounds.

pIC50, pKi: −log10 of the molar value.

For assay [1], the target named is Disintegrin and metalloproteinase domain-containing protein 17 (Sus scrofa, UniProt O77636). Put plainly: Inhibition of porcine TACE.
For assay [2], the target named is 72 kDa type IV collagenase (Homo sapiens, UniProt P08253). The assay is described as follows: Inhibition of MMP2.
72 kDa type IV collagenase, sequence (P08253 whole entry): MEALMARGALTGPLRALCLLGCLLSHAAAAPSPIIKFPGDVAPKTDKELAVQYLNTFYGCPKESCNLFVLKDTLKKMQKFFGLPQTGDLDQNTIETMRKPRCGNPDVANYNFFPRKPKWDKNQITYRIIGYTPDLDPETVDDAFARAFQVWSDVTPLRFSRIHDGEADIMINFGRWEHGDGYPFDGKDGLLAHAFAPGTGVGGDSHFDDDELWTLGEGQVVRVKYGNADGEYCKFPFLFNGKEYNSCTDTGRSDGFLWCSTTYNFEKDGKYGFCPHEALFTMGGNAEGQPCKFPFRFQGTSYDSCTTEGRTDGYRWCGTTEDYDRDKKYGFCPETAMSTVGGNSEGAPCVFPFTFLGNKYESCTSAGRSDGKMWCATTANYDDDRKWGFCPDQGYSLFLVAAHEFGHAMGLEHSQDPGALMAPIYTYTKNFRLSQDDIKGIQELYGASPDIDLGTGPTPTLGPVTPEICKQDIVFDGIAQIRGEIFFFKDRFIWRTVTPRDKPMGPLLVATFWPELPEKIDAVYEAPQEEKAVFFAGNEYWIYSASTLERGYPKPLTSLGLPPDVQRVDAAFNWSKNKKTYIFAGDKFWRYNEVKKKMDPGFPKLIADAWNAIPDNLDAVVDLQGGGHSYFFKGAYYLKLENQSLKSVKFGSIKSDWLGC
For the next assay, the target named is Stromelysin-1 (Homo sapiens, UniProt P08254). The assay is described as follows: Inhibition of MMP3.
Stromelysin-1, sequence (P08254 whole entry): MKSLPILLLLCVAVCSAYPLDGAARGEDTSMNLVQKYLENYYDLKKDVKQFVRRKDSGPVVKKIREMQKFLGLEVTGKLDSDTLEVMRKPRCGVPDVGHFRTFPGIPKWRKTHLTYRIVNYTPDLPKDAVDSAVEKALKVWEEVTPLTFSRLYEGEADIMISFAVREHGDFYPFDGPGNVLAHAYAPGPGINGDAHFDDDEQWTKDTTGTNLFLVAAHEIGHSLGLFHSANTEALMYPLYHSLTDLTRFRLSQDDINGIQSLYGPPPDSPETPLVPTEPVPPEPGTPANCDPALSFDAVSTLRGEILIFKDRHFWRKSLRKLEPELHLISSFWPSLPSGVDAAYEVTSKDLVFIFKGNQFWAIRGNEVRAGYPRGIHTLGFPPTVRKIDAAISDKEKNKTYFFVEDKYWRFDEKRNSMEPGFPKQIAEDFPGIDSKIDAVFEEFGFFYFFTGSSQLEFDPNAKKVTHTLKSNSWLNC
The next assay addresses T1, Matrilysin (Homo sapiens, UniProt P09237).
T1 sequence (P09237 whole entry): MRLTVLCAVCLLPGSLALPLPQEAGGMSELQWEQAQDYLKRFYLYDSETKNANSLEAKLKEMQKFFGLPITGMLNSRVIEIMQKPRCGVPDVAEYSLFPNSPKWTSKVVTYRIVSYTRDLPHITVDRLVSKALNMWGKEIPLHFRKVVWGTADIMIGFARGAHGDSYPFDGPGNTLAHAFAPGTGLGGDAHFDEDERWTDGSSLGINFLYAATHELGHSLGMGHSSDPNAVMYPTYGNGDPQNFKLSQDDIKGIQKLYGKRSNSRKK
Put plainly: Inhibition of MMP7.

For assay [3], the target named is Macrophage metalloelastase (Homo sapiens, UniProt P39900). The assay is described as follows: Inhibition of MMP12.
Macrophage metalloelastase, sequence (P39900 whole entry): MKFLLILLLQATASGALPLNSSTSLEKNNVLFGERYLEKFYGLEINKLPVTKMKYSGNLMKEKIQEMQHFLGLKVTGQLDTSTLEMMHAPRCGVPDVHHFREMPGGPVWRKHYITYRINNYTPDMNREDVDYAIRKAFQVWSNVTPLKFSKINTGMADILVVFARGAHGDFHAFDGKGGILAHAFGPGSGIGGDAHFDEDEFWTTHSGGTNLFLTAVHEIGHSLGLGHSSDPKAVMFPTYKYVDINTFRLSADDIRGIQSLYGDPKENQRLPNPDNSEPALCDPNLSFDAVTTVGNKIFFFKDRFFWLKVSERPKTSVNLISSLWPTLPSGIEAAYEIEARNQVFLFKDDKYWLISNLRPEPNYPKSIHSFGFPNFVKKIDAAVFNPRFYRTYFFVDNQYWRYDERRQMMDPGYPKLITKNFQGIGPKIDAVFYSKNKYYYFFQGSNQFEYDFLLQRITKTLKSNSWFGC
For another assay, the target named is Collagenase 3 (Homo sapiens, UniProt P45452). Put plainly: Inhibition of MMP13.
Another assay is filed under the species Homo sapiens. The assay is described as follows: Inhibition of aggrecanase at 1 uM.
In the next assay the test system is Blood. The assay is described as follows: Inhibition of LPS-stimulated TNFalpha production in human whole blood. The format is functional, tissue-based.
Another assay deals with T2, Interstitial collagenase (Homo sapiens, UniProt P03956).
T2 sequence (P03956 whole entry): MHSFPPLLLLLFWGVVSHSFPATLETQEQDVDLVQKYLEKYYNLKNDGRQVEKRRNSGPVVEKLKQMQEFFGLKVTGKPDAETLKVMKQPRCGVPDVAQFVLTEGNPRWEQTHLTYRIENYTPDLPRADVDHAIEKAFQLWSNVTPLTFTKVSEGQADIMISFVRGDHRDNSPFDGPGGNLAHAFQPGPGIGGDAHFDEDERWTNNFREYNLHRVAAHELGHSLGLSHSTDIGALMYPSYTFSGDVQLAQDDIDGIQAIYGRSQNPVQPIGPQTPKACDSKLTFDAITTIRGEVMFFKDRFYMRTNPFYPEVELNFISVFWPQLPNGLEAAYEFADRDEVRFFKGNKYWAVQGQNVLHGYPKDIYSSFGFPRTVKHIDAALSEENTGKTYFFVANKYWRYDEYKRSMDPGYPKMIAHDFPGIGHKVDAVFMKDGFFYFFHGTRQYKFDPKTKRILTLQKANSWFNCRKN
Put plainly: Inhibition of MMP1.

The target of assay [4] is Matrix metalloproteinase-9 (Homo sapiens, UniProt P14780). Put plainly: Inhibition of MMP9.
Matrix metalloproteinase-9, sequence (P14780 whole entry): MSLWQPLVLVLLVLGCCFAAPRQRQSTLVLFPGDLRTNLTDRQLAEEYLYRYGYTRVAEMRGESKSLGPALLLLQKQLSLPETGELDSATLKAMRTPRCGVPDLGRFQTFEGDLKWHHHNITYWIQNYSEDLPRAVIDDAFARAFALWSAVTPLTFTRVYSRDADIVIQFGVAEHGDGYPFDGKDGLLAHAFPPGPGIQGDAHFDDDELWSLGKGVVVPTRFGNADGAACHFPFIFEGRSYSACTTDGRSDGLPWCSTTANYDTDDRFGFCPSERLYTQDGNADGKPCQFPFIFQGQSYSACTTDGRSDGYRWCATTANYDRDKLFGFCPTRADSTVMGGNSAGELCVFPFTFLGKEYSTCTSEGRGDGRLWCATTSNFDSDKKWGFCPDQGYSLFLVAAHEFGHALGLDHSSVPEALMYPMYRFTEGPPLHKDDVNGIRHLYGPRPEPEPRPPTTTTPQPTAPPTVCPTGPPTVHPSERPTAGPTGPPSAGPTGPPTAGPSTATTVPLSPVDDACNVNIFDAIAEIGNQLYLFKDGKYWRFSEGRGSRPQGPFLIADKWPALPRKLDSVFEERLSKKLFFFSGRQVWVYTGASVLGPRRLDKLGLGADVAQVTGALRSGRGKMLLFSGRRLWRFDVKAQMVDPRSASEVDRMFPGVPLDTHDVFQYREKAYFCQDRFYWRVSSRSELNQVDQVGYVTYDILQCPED

Disintegrin and metalloproteinase domain-containing protein 17, sequence (O77636 whole entry, the tested form may be a part): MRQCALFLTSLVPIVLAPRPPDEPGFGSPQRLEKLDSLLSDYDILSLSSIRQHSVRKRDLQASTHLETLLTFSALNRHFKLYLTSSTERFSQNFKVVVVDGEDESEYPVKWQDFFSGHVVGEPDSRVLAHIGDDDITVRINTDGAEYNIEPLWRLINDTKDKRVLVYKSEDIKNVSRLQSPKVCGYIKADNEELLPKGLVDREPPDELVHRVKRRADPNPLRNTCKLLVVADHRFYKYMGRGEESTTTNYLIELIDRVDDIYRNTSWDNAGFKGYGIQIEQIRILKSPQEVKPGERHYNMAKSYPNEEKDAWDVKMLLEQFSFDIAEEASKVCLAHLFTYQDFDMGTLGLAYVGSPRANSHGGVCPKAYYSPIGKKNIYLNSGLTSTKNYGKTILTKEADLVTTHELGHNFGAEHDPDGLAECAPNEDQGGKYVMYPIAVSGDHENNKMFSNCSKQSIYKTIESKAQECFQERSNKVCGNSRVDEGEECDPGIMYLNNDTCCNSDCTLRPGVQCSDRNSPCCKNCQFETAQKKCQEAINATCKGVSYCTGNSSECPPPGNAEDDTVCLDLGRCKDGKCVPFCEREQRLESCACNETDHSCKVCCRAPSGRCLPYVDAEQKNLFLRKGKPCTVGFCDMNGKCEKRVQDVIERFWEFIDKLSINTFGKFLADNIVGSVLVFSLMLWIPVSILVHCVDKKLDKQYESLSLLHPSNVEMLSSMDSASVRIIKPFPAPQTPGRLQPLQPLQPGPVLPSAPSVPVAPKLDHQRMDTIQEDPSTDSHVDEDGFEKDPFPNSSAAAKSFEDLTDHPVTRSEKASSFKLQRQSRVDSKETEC

For `CC(=O)N1CC(NC(=O)c2ccc(OCc3cc(C)nc4ccccc34)cc2)C2(C1)C(=O)NC(=O)NC2=O` (centres undefined), the pIC50 is 7.26 in [1] and 4.85 in the assay with Blood. The pKi in [2] was below 5.48; at Stromelysin-1 it was below 5.35; on Matrilysin, below 5.20; in assay [3] it was 6.24; on Collagenase 3, 5.40. In addition, the inhibition in the assay filed under Homo sapiens is 44%.

On to `Cc1cc(COc2ccc(C(=O)NC3COCC34C(=O)NC(=O)NC4=O)cc2)c2ccccc2n1` (centres undefined), for which the pIC50 is 7.36 in assay [1] and 4.30 with Blood. Also, the pKi in assay [2] was below 5.48; at Stromelysin-1, below 5.35; at Matrilysin, below 5.20; in assay [3], below 5.39; at Collagenase 3, 5.45. The compound further registered an inhibition in the assay filed under Homo sapiens of 12%.

Regarding `Cc1cc(COc2ccc(C(=O)NCC3(C)C(=O)NC(=O)NC3=O)cc2)c2ccccc2n1`, the pIC50 in [1] was 7.59. For the same compound, the pKi was below 5.31 on Interstitial collagenase; below 5.48 in assay [2]; below 5.35 on Stromelysin-1; below 5.20 at Matrilysin; below 5.67 in assay [4]; below 5.22 in assay [3]. The compound also gave a negative logarithm of the Ki (pKi) on Collagenase 3 below 5.30. In addition, the inhibition in the assay listed under Homo sapiens was determined as 0%.

Take `Cc1cc(COc2ccc(C(=O)NC3CN(C(=O)OC(C)(C)C)CC34C(=O)NC(=O)NC4=O)cc2)c2ccccc2n1` (centres undefined): the pIC50 in assay [1] was 6.89; with Blood, 4.85. Besides, the pKi in assay [2] is below 5.48; at Stromelysin-1 it was below 5.35; on Matrilysin it was below 5.20; in assay [3] it was 5.99; at Collagenase 3 it was below 5.28. This compound also yielded an inhibition in the assay listed under Homo sapiens of 44%.

As to `Cc1cc(COc2ccc(C(=O)NC3CN(C(=O)c4cccnc4)CC34C(=O)NC(=O)NC4=O)cc2)c2ccccc2n1` (centres undefined), the pIC50 was 7.54 in assay [1] and 4.74 in the assay on Blood. In addition, the pKi in assay [2] was below 5.48; at Stromelysin-1, below 5.35; at Matrilysin it was below 5.20; in assay [3] it was 6.89; on Collagenase 3 it was 5.88. Moreover, in the assay filed under Homo sapiens, the inhibition came out at 17%.

`Cc1cc(COc2ccc(C(=O)NC3CN(S(C)(=O)=O)CC34C(=O)NC(=O)NC4=O)cc2)c2ccccc2n1` (centres undefined): the negative-log IC50 (pIC50) was 7.44 in [1] and 4.90 with Blood. The pKi in [2] was below 5.48; at Stromelysin-1, below 5.35; at Matrilysin, below 5.20; in assay [3], 5.89; at Collagenase 3, 5.43. This compound also came in with an inhibition in the assay filed under Homo sapiens of 26%.
